Results taken from patent US12285399B2, “Composition comprising bornyl acetate or pharmaceutically acceptable salt thereof as active ingredient for prevention or treatment of stress-related disorder” (UNIVERSITY-INDUSTRY COOPERATION GROUP OF KYUNG HEE …, priority 2019, dated 2025).

Tests used:
Assay type in all cases: in vivo, C57BL/6NTac mice
[1] = tested on: animal model of stress depression induced by chronic restrained stress (CRS); test: Forced swimming test (FST) in CRS-induced stress depression model; settings: CRS+BA group, oral daily 1 hour before restraint, 24 hours after TST, last 4 minutes of 6-minute test; dose not stated
Description: In order to confirm the antidepressant efficacy of bornyl acetate on the animal model of stress depression, an animal model of depression induced by chronic restrained stress (CRS) was prepared. Specifically, the animal model, 8-week-old male C57BL/6NTac mice after birth (Narabiotechnology, Korea; weight 22-24 g) had been stabilized for 1 week. A 50 ml conical tube (SPL Life sciences, Pocheon, Korea) was punched to make a hole, thereby making a restraint frame. The mice were put in the frame and restrained for 2 hours every day for 14 days. After restraint, the mice were allowed to freely ingest water and food in the home cage. 24 hours after the tail suspension test, distilled water (23-24° C.) was filled to a height of about 14 cm in a circular water tank (diameter 15×height 25 cm), and the mice were dropped and forced to swim. […] Bornyl acetate (25, 50 and 100 mg/kg) of the present invention was dissolved in 0.1 M PBS, and the mixture was orally administered 1 hour before inducing restrained stress every day. Bornyl acetate was administered in a dose per individual of 100 μl.

CD11b protein = test: Western blot of CD11b protein in brain (hippocampus and amygdala) of CRS model; settings: CRS+BA group
Description: In order to confirm the antidepressant efficacy of bornyl acetate on the animal model of stress depression, an animal model of depression induced by chronic restrained stress (CRS) was prepared. Specifically, the animal model, 8-week-old male C57BL/6NTac mice after birth (Narabiotechnology, Korea; weight 22-24 g) had been stabilized for 1 week. A 50 ml conical tube (SPL Life sciences, Pocheon, Korea) was punched to make a hole, thereby making a restraint frame. The mice were put in the frame and restrained for 2 hours every day for 14 days. After restraint, the mice were allowed to freely ingest water and food in the home cage. The hippocampus and amygdala of the brain were excised. They were added to 200 μl of a protein lysis buffer (10 mM Tris, 0.5 mM EDTA, 0.25 M sucrose), and proteins were isolated using a grinder. The isolated protein was quantified by the Bradford method (Bio-rad, USA) using bovine serum albumin (BSA, Sigma, USA), and then 25 μg of the protein was separated by 10% sodium dodecyl sulfate-polyacrylamide gel electrophoresis (SDS-PAGE) and transferred to polyvinylidene difluoride (PVDF) membrane (Gendepot, UK). PVDF membranes were blocked in 5% skimmed milk (BD, USA) for 1 hour. […] Identification and quantitative analysis of proteins were analyzed using an imaging device ChemiDoc XRS+ (Bio-Rad). […]

iNOS mRNA = test: RT-PCR of iNOS mRNA in brain (hippocampus and amygdala) of CRS model; settings: CRS+BA group, 100 mg/kg oral
Description: In order to confirm the antidepressant efficacy of bornyl acetate on the animal model of stress depression, an animal model of depression induced by chronic restrained stress (CRS) was prepared. Specifically, the animal model, 8-week-old male C57BL/6NTac mice after birth (Narabiotechnology, Korea; weight 22-24 g) had been stabilized for 1 week. A 50 ml conical tube (SPL Life sciences, Pocheon, Korea) was punched to make a hole, thereby making a restraint frame. The mice were put in the frame and restrained for 2 hours every day for 14 days. After restraint, the mice were allowed to freely ingest water and food in the home cage.
In order to confirm the inhibitory effect of bornyl acetate on the expression of inflammatory mediators in an animal model of depression induced by chronic restrained stress, mRNA expression was confirmed using reverse transcription-polymerase chain reaction (RT-PCR). Bornyl acetate (100 mg/kg) was orally administered 1 hour before inducing the restrained stress every day. […]
Western blot and RT-PCR analysis were performed in the brain (hippocampus and amygdala) of an animal model of chronic restrained stress (CRS)-induced stress depression to exam and quantify the activation level of inflammatory mediators, thereby verifying the modulating effect of bornyl acetate on the inflammatory response in the brain. […]

## CC(=O)OC1CC2CCC1(C)C2(C)C (centres unmarked) [BA, bornyl acetate]
[1]
  time of immobility, forced swimming test: 85.2 s
CD11b protein; amygdala
  expression of CD11b protein (CRS-induced increase): significantly inhibited
CD11b protein; hippocampus
  expression of CD11b protein (CRS-induced increase): significantly inhibited
iNOS mRNA; amygdala
  mRNA expression of iNOS (CRS-induced increase): significantly inhibited
iNOS mRNA; hippocampus
  mRNA expression of iNOS (CRS-induced increase): significantly inhibited
